Data published in patent US12377112B2, “Methods of treating neurocognitive disorders, chronic pain and reducing inflammation” (priority 2019, dated 2025).

Test system: mice
Test: Haloperidol-induced catalepsy model
Format: in vivo, mouse
Settings: for Haloperidol-induced catalepsy (significantly reduced): FIG. 17 (24 hours after administration)
Description: The potential anti-akinetic effect of psilocybin in mice was investigated. Psilocybin (1 mg/kg, 3 mg/kg, or 10 mg/kg), chlorstyril caffeine (CSC), or vehicle was administered one hour, 24 hours, or one week prior to administration of haloperidol.
After administration of haloperidol, a catalepsy test was administered to each mouse. During the test, the forelimbs of the mice were placed on a catalepsy apparatus. The latency time was defined as the time necessary for the mouse to put the forelimbs on the table. The cut off time was set as 3 minutes. Catalepsy was evaluated every 45 minutes for 270 minutes after the Haloperidol injection.

CN(C)CCc1c[nH]c2cccc(OP(=O)(O)O)c12 [Psilocybin, psilocybin]
Haloperidol-induced catalepsy (significantly reduced) (1 mg/kg): 90 s | Start of positive effect on catalepsy after haloperidol (1 mg/kg, FIG. 18 (24 hours after administration)): 135 min | Time after haloperidol injection of decrease in descent latency (1 mg/kg, one hour prior to the test): 270 min | Time after haloperidol from which descent latency is significantly decreased (3 mg/kg, 1 week prior to the test): ≥ 224 min | Haloperidol-induced catalepsy (significantly reduced) (3 mg/kg): 60 s | Start of reduction in descent latency after haloperidol, lasting to 270 minutes (3 mg/kg, FIG. 18 (24 hours after administration)): 45 min | Time after haloperidol injection from which descent latency is significantly decreased (3 mg/kg, one hour prior to the test): ≥ 225 min | Haloperidol-induced catalepsy (significantly reduced) (10 mg/kg): 75 s | Start of positive effect on catalepsy after haloperidol (10 mg/kg, FIG. 18 (24 hours after administration)): 90 min | Time after haloperidol injection from which descent latency is significantly decreased (10 mg/kg, one hour prior to the test): ≥ 180 min
